According to article PMC12589998, “Development and validation of a UHPLC-QqQ-MS/MS method for simultaneous determination of fifteen major components from Oroxyli seed extract in rat plasma and its application in the pharmacokinetic study” (Frontiers in Pharmacology, 2025):

Columns and labels:
[1] = Pharmacokinetic study in rats after oral administration of OS extract (UHPLC-QqQ-MS/MS of plasma); format: in vivo, rat; settings: male; for concentration at 0.5 h: SD, 3 g/kg, rat plasma collected 0.5 h after oral administration of the OS extract, read-out: Concentration printed in MRM chromatogram of plasma sample (Figure 2C); for AUC(0-t) / AUC(0-inf) / Cmax / half-life / Tmax: rat plasma, oral 3 g/kg OS extract, n = 6, mean ± SD; for AUC(0-t): read-out: AUC(0-t); for AUC(0-inf): read-out: AUC(0-∞); for Cmax: read-out: Cmax; for half-life: read-out: T1/2 (converted); for Tmax: read-out: Tmax
Method: The UHPLC-QqQ-MS/MS system consisted of a 1290 UHPLC and a 6470 mass spectrometer (Agilent Technologies). Chromatographic separation was realized on utilizing an ACQUITY UPLC BEH C18 column (2.1 × 100 mm, 1.7 μm) maintained at 35 °C. The mobile phase consisting of 0.1% formic acid in water (A) and acetonitrile (B) was utilized with the elution program set at 0 min–1 min, 5% B–30% B; 1 min–4 min, 30% B– 50% B; 4 min–8 min, and 50% B–90% B. The injection volume was 5 μL, and the flow rate was 0.3 mL/min. The mass spectrometry parameters in the negative ion mode, gas temperature, flow rate, and nebulizer pressure were 300 °C, 7 L/min, and 35 psi, respectively. The mass spectra properties of the 15 analytes and the IS are illustrated in Table 1.
To 100 μL of the plasma sample, 20 μL of methanol, 20 μL of IS solution (methylparaben, 1 μg/mL), and 5 μL of formic acid were added and vortexed for a duration of 2 min. Subsequently, the mixture underwent extraction with 800 μL of acetonitrile for 3 min. Following 10 min of centrifugation at 12,000 g, the supernatant was collected and evaporated to dryness under N2 to obtain the residue. Finally, the residue was reconstituted in 50% methanol (100 μL) and utilized for analysis.
Before initiating the study, six male SD rats underwent a 12-h fasting period, during which they were granted unrestricted access to water. Then, the rats were administered an oral dose of 3 g/kg of the OS extract, which had been dissolved in 0.5% CMC-Na aqueous solution. Blood samples, approximately 200 μL each, were collected at various time points: before administration and at 0.03, 0.08, 0.17, 0.25, 0.5, 0.75, 1, 2, 4, 6, 8, 10, 12, 24, 36, and 48 h post-administration. Following 10 min of centrifugation at 6,000 g, the resultant samples were stored at −80 °C.
The developed method was effectively applied to study the pharmacokinetics in rats following oral administration of the OS extract. […] This was likely due to their low concentrations in the OS extract. Ultimately, nine components (chrysin, chrysin-7-O-β-D-glucuronide, baicalin, baicalein, oroxin A, oroxin B, oroxylin A, oroxylin A-7-O-β-D-glucuronide, and scutellarein) were successfully fitted with pharmacokinetic parameters. The average plasma concentration–time profiles of these substances are depicted in Figure 3. […] All data were presented as the mean ± standard deviation (Mean ± SD).

[2] = Stability of the analytes in rat plasma samples under storage conditions; format: physicochemical; settings: n = 6
Method: The bioanalytical method validation was evaluated for specificity, linearity, sensitivity, precision and accuracy, recovery, matrix effect, and stability to ensure compliance with the U.S. Food and Drug Administration (FDA) guidance on precise quantitative analysis ([Center for Drug Evaluation and Research of the U.S., 2018]). The assessment of specificity was conducted by comparing the chromatograms obtained from blank plasma, blank plasma spiked with the target components, and samples gathered following the oral administration of OS extract. Calibration curves were constructed by plotting the ratio for the peak area of the analyte to IS versus the concentration, with 1/x^2 serving as the weighting factor. The lower limit of quantification (LLOQ) was defined as the concentration at which a signal to noise ratio of […] 10 was achievable. The evaluation of precision and accuracy involved the analysis of six QC samples, both within a single day and over 3 consecutive days. Accuracy was expressed as the relative error (RE), whereas precision was gauged via relative standard deviation (RSD). Extraction recovery was ascertained by juxtaposing the responses of analytes in extracted samples against those in samples that were spiked post-extraction. The matrix effect was scrutinized by determining the ratio of the responses of the analytes in post-extraction spiked samples to those in the mixed standard solution. The stability of the analytes in plasma samples was explored under diverse conditions: encompassing a 12-h period in an autosampler, a 4-h interval at room temperature, three cycles of freezing–thawing, and a 7-day duration at −80 °C.
The retention times of the analyte peaks were consistent with those in the spiked samples. […] The LLOQs for chrysin, chrysin-7-O-β-D-glucuronide, hispidulin, wogonoside, quercetin, quercetin-7-O-β-D-glucoside, baicalin, baicalein, acacetin, oroxin A, oroxin B, oroxylin A, oroxylin A-7-O-β-D-glucuronide, apigenin, and scutellarein were 1.0, 2.0, 1.0, 0.3, 1.0, 0.1, 9.0, 6.0, 0.3, 6.0, 4.0, 1.0, 2.0, 0.5, and 0.3 ng/mL, respectively. In Supplementary Table S2, the RE for accuracy is between −13.77% and 12.55%, and the RSD for precision is below 14.55% (both intra- and inter-day). […] The matrix effect varied from 60.15% to 115.53%, with RSD values below 10.54%. In Supplementary Table S4, the RSD values for stability of the analytes are found to be lower than 13.98%, meaning that these components were stable under the following conditions: encompassing a 12-h period in an autosampler, a 4-h interval at room temperature, three cycles of freezing and thawing, and a 7-day duration at −80 °C.

[3] = spiked concentration 6400 ng/mL

| Structure (SMILES) | concentration at 0.5 h [1] [ng/mL] | AUC(0-t) [1] [ng·h/mL] | AUC(0-inf) [1] [ng·h/mL] | Cmax [1] [ng/mL] | half-life [1] [h] | Tmax [1] [h] | Measured, -80°C for 7 days ([2]; spiked concentration 40 ng/mL) [ng/mL] | Measured, Autosampler for 12 h ([2]; spiked concentration 40 ng/mL) [ng/mL] | Measured, Room temperature for 4 h ([2]; spiked concentration 40 ng/mL) [ng/mL] | Measured, Three freeze-thaw cycles ([2]; spiked concentration 40 ng/mL) [ng/mL] | Measured, -80°C for 7 days ([2]; spiked concentration 400 ng/mL) [ng/mL] | Measured, Autosampler for 12 h ([2]; spiked concentration 400 ng/mL) [ng/mL] | Measured, Room temperature for 4 h ([2]; spiked concentration 400 ng/mL) [ng/mL] | Measured, Three freeze-thaw cycles ([2]; spiked concentration 400 ng/mL) [ng/mL] | Measured, -80°C for 7 days [2, 3] [ng/mL] | Measured, Autosampler for 12 h [2, 3] [ng/mL] | Measured, Room temperature for 4 h [2, 3] [ng/mL] | Measured, Three freeze-thaw cycles [2, 3] [ng/mL] | other results |
| --- | --- | --- | --- | --- | --- | --- | --- | --- | --- | --- | --- | --- | --- | --- | --- | --- | --- | --- | --- |
| O=c1cc(-c2ccc(O)cc2)oc2cc(O)c(O)c(O)c12 [Scutellarein, scutellarein] | 14 | 89.4 ± 18.5 | 95.6 ± 17.5 | 47.8 ± 15.1 | 4.07 ± 1.61 | 0.1 ± 0.04 | – | – | – | – | – | – | – | – | – | – | – | – | Measured, -80°C for 7 days ([2]; spiked concentration 2 ng/mL): 1.77 ± 0.12 ng/mL; Measured, Autosampler for 12 h ([2]; spiked concentration 2 ng/mL): 2.05 ± 0.22 ng/mL; Measured, Room temperature for 4 h ([2]; spiked concentration 2 ng/mL): 1.84 ± 0.17 ng/mL; Measured, Three freeze-thaw cycles ([2]; spiked concentration 2 ng/mL): 1.78 ± 0.13 ng/mL; Measured, -80°C for 7 days ([2]; spiked concentration 20 ng/mL): 19.80 ± 0.92 ng/mL; Measured, Autosampler for 12 h ([2]; spiked concentration 20 ng/mL): 19.68 ± 1.68 ng/mL; Measured, Room temperature for 4 h ([2]; spiked concentration 20 ng/mL): 18.12 ± 0.51 ng/mL; Measured, Three freeze-thaw cycles ([2]; spiked concentration 20 ng/mL): 21.33 ± 0.83 ng/mL; Measured, -80°C for 7 days ([2]; spiked concentration 320 ng/mL): 296.10 ± 18.07 ng/mL; Measured, Autosampler for 12 h ([2]; spiked concentration 320 ng/mL): 327.40 ± 16.47 ng/mL; Measured, Room temperature for 4 h ([2]; spiked concentration 320 ng/mL): 316.24 ± 35.36 ng/mL; Measured, Three freeze-thaw cycles ([2]; spiked concentration 320 ng/mL): 292.73 ± 17.80 ng/mL |
| O=c1cc(-c2ccccc2)oc2cc(O[C@@H]3O[C@H](CO[C@@H]4O[C@H](CO)[C@@H](O)[C@H](O)[C@H]4O)[C@@H](O)[C@H](O)[C@H]3O)c(O)c(O)c12 [Oroxin B, oroxin B] | 1130 | 2120 | 2230 | 1990 | 3.97 ± 1.37 | 0.22 ± 0.04 | 37.76 ± 3.31 | 39.10 ± 2.32 | 41.95 ± 3.13 | 38.40 ± 1.50 | 393.06 ± 24.72 | 436.20 ± 27.56 | 430.23 ± 11.61 | 392.81 ± 19.18 | 5937.71 ± 352.01 | 6506.73 ± 286.20 | 6564.94 ± 412.78 | 6068.65 ± 216.91 | – |
| O=c1cc(-c2ccccc2)oc2cc(O)c(O)c(O)c12 [Baicalein, baicalein] | 400 | 4200 | 4600 | 2930 | 2.99 ± 1.18 | 0.06 ± 0.03 | 38.12 ± 3.24 | 39.31 ± 4.16 | 40.41 ± 3.19 | 38.12 ± 3.24 | 409.67 ± 26.03 | 393.06 ± 21.11 | 389.14 ± 35.85 | 409.67 ± 26.03 | 5967.02 ± 503.93 | 6241.15 ± 404.47 | 6247.34 ± 389.56 | 5967.02 ± 503.93 | – |
